Patent US5066658A, “Substituted hydroxyureas” (Ortho Pharmaceutical Corporation, priority 1990, dated 1991)

Legend:
5-lipoxygenase = molecular target: T1, 5-lipoxygenase (Rattus norvegicus, UniProt P12527); assay: Inhibition of 5-lipoxygenase in cell-free homogenate of rat basophilic leukemia (RBL-1) cells; type: biochemical; conditions: RBL-1 cell-free homogenate; for inhibition at 3 µM: read-out: Inhibition of 5-Lipoxygenase, % Inh. @ 3 μM
T1 construct: The cell-free homogenate was prepared by sonication of the cells followed by centrifugation at 40,000 xg; endogenous in cells; host or cells: RBL-1 (rat basophilic leukemia) cells, 40,000 xg supernatant of the sonicate
T1 sequence (P12527 1-673): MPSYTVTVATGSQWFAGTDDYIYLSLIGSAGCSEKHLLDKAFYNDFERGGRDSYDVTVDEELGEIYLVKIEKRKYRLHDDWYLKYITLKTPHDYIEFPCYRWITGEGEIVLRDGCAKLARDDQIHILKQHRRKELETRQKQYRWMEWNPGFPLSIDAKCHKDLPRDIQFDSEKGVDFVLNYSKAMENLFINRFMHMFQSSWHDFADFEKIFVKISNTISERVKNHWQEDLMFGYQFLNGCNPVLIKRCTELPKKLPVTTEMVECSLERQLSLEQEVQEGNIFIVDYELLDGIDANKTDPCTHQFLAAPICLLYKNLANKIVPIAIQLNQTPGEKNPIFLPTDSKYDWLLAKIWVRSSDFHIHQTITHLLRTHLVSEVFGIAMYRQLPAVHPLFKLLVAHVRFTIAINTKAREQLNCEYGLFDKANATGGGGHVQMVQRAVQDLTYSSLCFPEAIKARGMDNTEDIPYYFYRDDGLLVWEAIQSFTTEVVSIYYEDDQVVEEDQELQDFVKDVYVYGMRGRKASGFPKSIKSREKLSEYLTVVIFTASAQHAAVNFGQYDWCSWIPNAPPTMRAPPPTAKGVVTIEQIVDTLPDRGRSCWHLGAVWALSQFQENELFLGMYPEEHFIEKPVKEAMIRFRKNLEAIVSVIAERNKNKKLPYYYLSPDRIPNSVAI
Experimental: The inhibition of 5-lipoxygenase was tested in a cell-free homogenate by the procedure of B. Jakschik et al., Biochem.Biophys.Res.Comm. 95, 103 (1980). Basically, rat basophilic leukemia cells (RBL-1 cells) were maintained in culture in a suitable medium, and were collected by centrifugation prior to assay. The cell-free homogenate was prepared by sonication of the cells followed by centrifugation at 40,000 xg. The CaCl2 dependent production of lipoxygenase products from ^14 C-arachidonic acid in the 40,000 xg supernatant was monitored in the presence of buffer (or other vehicle) or drug. Products were isolated by acidification and extraction, followed by thin layer chromatography. Radioactive areas corresponding to the authentic lipoxygenase products were quantitated by liquid scintillation counting. Data was reported as the IC50, the concentration causing 50% inhibition of the generation of lipoxygenase products. The results are shown it Table I as the percent inhibition at 3 μM or the amount of compound necessary to cause 50% inhibition.

[1] = system: Arachidonate-Induced Bronchospasm (cyclooxygenase); assay: Pulmonary Mechanics Assay: arachidonate-induced bronchospasm without indomethacin (indicative of cyclooxygenase inhibition); type: in vivo, male Hartley guinea pigs; conditions: Cavia porcellus, guinea pig; for inhibition in vivo at 15 mg/kg: IV dosing, read-out: Inhibition of Arachidonate-Induced Bronchospasm (IV Dosing), % Inh. without Indomethacin; for inhibition in vivo at 50 mg/kg: ID dosing, read-out: Inhibition of Arachidonate-Induced Bronchospasm (ID Dosing), % Inh. without Indomethacin
Experimental: (§1) The bronchodilating activity of the compounds was tested in a pulmonary mechanics assay. Basically, male Hartley guinea pigs (about 400-500 g) were anesthetized with urethane (2 g/kg, i.p.) and placed in a whole body Plethysmograph. Cannulations of a jugular vein and carotid artery were performed for compound administration and monitoring blood pressure, respectively. The trachea was cannulated for respiration at a constate volume via a miniature starling pump. A Validyne differential pressure transducer (±20 cm H2 O) sensed transpleural pressure via a 15 gauge needle inserted into the pleural cavity and a sidearm from the tracheal cannula. Tidal volume was sensed by another Validyne differential pressure transducer (±2 cm H2 O) from pressure changes inside the plethysmograph. An on-line Buxco pulmonary mechanics computer calculated air flow, dynamic lung compliance and lung resistance. The values were recorded on a print-out.
(§2) The guinea pigs were pretreated with succinyl choline (1.2 mg/kg, i.v.) to arrest spontaneous respiration. A control challenge of arachidonic acid (0.5-1.0 mg/kg, i.v.) was administered, and the animals were then dosed with the test compound by various routes. At least 10 minutes were allowed to expire between arachidonic acid challenges. A second challenge was given and compared to the control response. This comparison was indicative of cyclooxygenase inhibition. Indomethacin (10 mg/kg, i.v.) was administered immediately after the second challenge. A third challenge of a higher dose of arachidonic acid (5-10 mg/kg, i.v.) was given. This response was induced by SRS-A and compared to the responses elicited by a separate control group of animals. Activity was indicative of lipoxygenase inhibition. Propranolol (0.005 mg/kg. i.v.) may be given prior to the third challenge to enhance the response to SRS-A.
(§3) Bronchoconstriction induced by arachidonic acid with or without indomethacin was expressed as maximum percent change in dynamic lung compliance (Cdyn) and maximum percent increase in lung resistance (RL). Each guinea pig served as its own control for cyclooxygenase evaluation. The results are shown in Table I and are expressed as the percent inhibition of control.

[2] = system: Arachidonate-Induced Bronchospasm (lipoxygenase); assay: Pulmonary Mechanics Assay: arachidonate-induced bronchospasm with indomethacin (SRS-A response, indicative of lipoxygenase inhibition); type: in vivo, male Hartley guinea pigs; conditions: Cavia porcellus, guinea pig; for inhibition in vivo at 15 mg/kg: IV dosing, read-out: Inhibition of Arachidonate-Induced Bronchospasm (IV Dosing), % Inh. with Indomethacin; for inhibition in vivo at 50 mg/kg: ID dosing, read-out: Inhibition of Arachidonate-Induced Bronchospasm (ID Dosing), % Inh. with Indomethacin
Experimental: as §1, §2, §3

[3] = system: Arachidonate-Induced Ear Edema; assay: Arachidonic Acid-Induced Ear Edema Assay; type: in vivo; conditions: topical, mouse ear; for inhibition in vivo at 0.4 mg: 400 μg topically; for inhibition in vivo at 0.4 mg / inhibition in vivo at 0.2 mg / inhibition in vivo at 0.1 mg: read-out: Inhibition of Arachidonate-Induced Ear Edema, % Inh. (μg topically); for inhibition in vivo at 0.2 mg: 200 μg topically; for inhibition in vivo at 0.1 mg: 100 μg topically
Experimental: The topical anti-inflammatory activity of a compound was determined by its ability to inhibit an experimentally-induced inflammation in the mouse ear. Basically, four milligrams of arachidonic acid in acetone were applied to the dorsal surface of one ear with a microliter pipette. The mice were sacrificed at various times after application of arachidonic acid (one-half to six hours). A section of each ear was removed with a 7 mm round punch and weighed on an electronic or analytical balance. The difference in weight between treated and untreated ears was determined. Compounds to be evaluated for anti-inflammatory activity can be incorporated directly into the irritant mixture or at various times prior to or after application of arachidonic acid.
The degree of anti-inflammatory activity is shown in Table I, and is expressed in terms of the percent inhibition of ear weight increase.

## CCCCCCCCCCN(O)C(=O)N(CC)CC [Example 1, N,N-Diethyl-N'-decyl-hydroxyurea]
5-lipoxygenase
  inhibition at 3 µM: 100%
[1]
  inhibition in vivo at 15 mg/kg: 54%
[2]
  inhibition in vivo at 15 mg/kg: 38%
[3]
  inhibition in vivo at 0.4 mg: 52%

## CCCCCCCCCCN(O)C(=O)NC [Example 2, N-Methyl-N'-decyl-N'-hydroxyurea]
5-lipoxygenase
  IC50: 0.09 µM
[1]
  inhibition in vivo at 15 mg/kg: 32%
[2]
  inhibition in vivo at 15 mg/kg: 44%
[3]
  Inhibition of Arachidonate-Induced Ear Edema, ED50: 29 µg
  inhibition in vivo at 0.4 mg: 82%

## CCCCCCCCCCN(O)C(=O)NCCC(=O)OC [Example 4, N-[2-(Methoxycarbonyl)ethyl]-N'-decyl-N'-hydroxyurea]
5-lipoxygenase
  inhibition at 3 µM: 100%
[1]
  inhibition in vivo at 15 mg/kg: -39%
[2]
  inhibition in vivo at 15 mg/kg: < 20%
[3]
  inhibition in vivo at 0.4 mg: 65%

## CCCCCCCCCCN(O)C(=O)NCCCC(=O)OC [Example 5, N-[3-(Methoxycarbonyl)propyl]-N'-decyl-N'-hydroxyurea]
5-lipoxygenase
  inhibition at 3 µM: 100%
[1]
  inhibition in vivo at 15 mg/kg: < 20%
[2]
  inhibition in vivo at 15 mg/kg: 37%
[3]
  inhibition in vivo at 0.4 mg: 49%

## CCCCCCCCCCN(O)C(=O)NCCCCCCC(=O)OC [Example 6, N-[6-(Methoxycarbonyl)hexyl]-N'-decyl-N'-hydroxyurea]
5-lipoxygenase
  inhibition at 3 µM: 100%
[1]
  inhibition in vivo at 15 mg/kg: -45%
[2]
  inhibition in vivo at 15 mg/kg: < 20%
[3]
  inhibition in vivo at 0.4 mg: 30%

## CCCCCCCCN(O)C(=O)N(C)C [Example 7, N,N-Dimethyl-N'-octyl-N'-hydroxyurea]
5-lipoxygenase
  inhibition at 3 µM: 77%
  IC50: 1.8 µM
[1]
  inhibition in vivo at 15 mg/kg: 61%
[2]
  inhibition in vivo at 15 mg/kg: 41%
[3]
  Inhibition of Arachidonate-Induced Ear Edema, ED50: 49 µg

## CCCCCCCCCCN(O)C(=O)N(C)C [Example 11, N,N-Dimethyl-N'-decyl-N'-hydroxyurea]
5-lipoxygenase
  IC50: 0.1 µM
[1]
  inhibition in vivo at 50 mg/kg: 36%
  inhibition in vivo at 15 mg/kg: 95%
[2]
  inhibition in vivo at 50 mg/kg: -46%
  inhibition in vivo at 15 mg/kg: 98%
[3]
  Inhibition of Arachidonate-Induced Ear Edema, ED50: 43 µg
  inhibition in vivo at 0.4 mg: 90%

## CCCCCCCCCCCN(O)C(=O)N(C)C [Example 12, N,N-Dimethyl-N'-undecyl-N'-hydroxyurea]
5-lipoxygenase
  inhibition at 3 µM: 100%
[1]
  inhibition in vivo at 50 mg/kg: -9%
[2]
  inhibition in vivo at 50 mg/kg: 40%
[3]
  Inhibition of Arachidonate-Induced Ear Edema, ED50: 65 µg
  inhibition in vivo at 0.2 mg: 94%

## CCCCCCCCCCC1CN(O)C(=O)N1C (stereo not shown) [Example 28, 4-Decyl-1-hydroxy-3-methylimidazolidin-2-one]
5-lipoxygenase
  inhibition at 3 µM: 96%
  IC50: 0.28 µM
[3]
  Inhibition of Arachidonate-Induced Ear Edema, ED50: 134 µg
  inhibition in vivo at 0.4 mg: 85%

## CN(O)C(=O)NCCc1ccc(-c2ccccc2)cc1 [Example 31]
5-lipoxygenase
  inhibition at 3 µM: 39%
[3]
  inhibition in vivo at 0.2 mg: 40%

## CN(O)C(=O)NCCCCCCCOCc1ccccc1 [Example 39, N-[7-(Benzyloxy)heptyl]-N'hydroxy-N'-methylurea]
5-lipoxygenase
  inhibition at 3 µM: 100%
[3]
  Inhibition of Arachidonate-Induced Ear Edema, ED50: 31 µg
  inhibition in vivo at 0.2 mg: 70%

## COc1ccc(CCNC(=O)N(OC(C)=O)C(C)(C)C)cc1OC [Example 52, N-[2-(3,4-Dimethoxyphenyl)ethyl]-N'-acetoxy-N'-t-butylurea]
5-lipoxygenase
  inhibition at 3 µM: 9%
[3]
  inhibition in vivo at 0.1 mg: 69%

## COc1ccc(CC(C)(C)NC(=O)N(C)O)cc1OC [Example 56, N-[2-(3,4-Dimethoxyphenyl)-1,1-dimethylethyl]-N'hydroxy-N'-methylurea]
5-lipoxygenase
  inhibition at 3 µM: 3%
[3]
  inhibition in vivo at 0.1 mg: 38%

## COc1cc2c(cc1OC)CCN(C(=O)N(C)O)CC2 [Example 62, 7,8-Dimethoxy-N-hydroxy-N-methyl-1,2,4,5-tetrahydro-3H-3-benzazepine-3-carboxamide]
5-lipoxygenase
  inhibition at 3 µM: 0%
[3]
  inhibition in vivo at 0.2 mg: 35%

## COc1ccc(CCNC(=O)N(C)O)cc1OCc1ccccc1 [Example 69, N-[2-(3-Benzyloxy-4-methoxyphenyl)ethyl]-N'-hydroxy-N'-methylurea]
5-lipoxygenase
  inhibition at 3 µM: 41%
[3]
  inhibition in vivo at 0.2 mg: 38%
